In patent publication US6737383B1, “Herbicidal oxadiazolidines” (priority 1999, dated 2004):

Key:
[1] = tested on: duck salad; assay: Test B flood test duck salad; type: in vivo, Heteranthera limosa
Procedure, shortened: (§1)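 Read-out is a visual response score from 0 (no effect) to 10 (complete control), assigned by comparison with untreated controls. Treatment was applied at the 2-leaf stage, and plants stayed in the greenhouse for twelve to sixteen days before scoring.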

[2] = tested on: rice; assay: Test B flood test rice; type: in vivo, Oryza sativa
Procedure, shortened: as §1

[3] = tested on: soybean; assay: Test B pre/postemergence soybean; type: in vivo, Glycine max
Procedure, shortened: (§2)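 Response is a visual 0-to-10 score relative to untreated plants, where 0 means no effect and 10 means complete control, taken twelve to sixteen days after application. Treatments went onto soil at planting and onto foliage of 1- to 4-leaf plants, using a surfactant-containing non-phytotoxic solvent.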

[4] = tested on: bedstraw; assay: Test B pre/postemergence bedstraw; type: in vivo, Galium aparine
Procedure, shortened: as §2

[5] = tested on: giant foxtail; assay: Test B pre/postemergence giant foxtail; type: in vivo, Setaria faberii
Procedure, shortened: as §2

[6] = tested on: pigweed; assay: Test B pre/postemergence pigweed; type: in vivo, Amaranthus retroflexus
Procedure, shortened: as §2

[7] = tested on: velvetleaf; assay: Test B pre/postemergence velvetleaf; type: in vivo, Abutilon theophrasti
Procedure, shortened: as §2

[8] = tested on: morningglory; assay: Test B pre/postemergence morningglory; type: in vivo, Ipomoea hederacea
Procedure, shortened: as §2

[9] = tested on: rape; assay: Test B pre/postemergence rape; type: in vivo, Brassica napus
Procedure, shortened: as §2

[10] = tested on: purple nutsedge; assay: Test B pre/postemergence purple nutsedge; type: in vivo, Cyperus rotundus
Procedure, shortened: as §2

[11] = tested on: surinam grass; assay: Test B pre/postemergence surinam grass; type: in vivo, Brachiaria decumbens
Procedure, shortened: as §2

[12] = tested on: smallflower flatsedge; assay: Test B flood test smallflower flatsedge; type: in vivo, Cyperus difformis
Procedure, shortened: as §1

[13] = tested on: corn; assay: Test B pre/postemergence corn; type: in vivo, Zea mays
Procedure, shortened: as §2

[14] = tested on: bamyardgrass; assay: Test B flood test barnyardgrass; type: in vivo, Echinochloa crus-galli
Procedure, shortened: as §1

[15] = tested on: blackgrass; assay: Test B pre/postemergence blackgrass; type: in vivo, Alopecurus myosuroides
Procedure, shortened: as §2

[16] = tested on: sugar beet; assay: Test B pre/postemergence sugar beet; type: in vivo, Beta vulgaris
Procedure, shortened: as §2

[17] = Postemergence, Rate 62 g/ha, scale 0 to 10, 0 is no effect, 10 is complete control
[18] = Rate 125 g/ha, Postemergence section (flood test species), scale 0 to 10, 0 no effect, 10 complete control
[19] = Rate 500 g/ha, Postemergence section of Table B, 0 to 10 scale (0 no effect, 10 complete control)
[20] = flood test, listed under Postemergence, Rate 250 g/ha, scale 0 to 10, 0 no effect, 10 complete control
[21] = Postemergence, Rate 250 g/ha, scale 0 to 10, 0 no effect, 10 complete control
[22] = Preemergence, Rate 62 g/ha, scale 0 to 10, 0 is no effect, 10 is complete control
[23] = Preemergence, Rate 125 g/ha, scale 0 to 10 (0 no effect, 10 complete control)
[24] = Preemergence, Rate 250 g/ha, scale of 0 to 10 where 0 is no effect and 10 is complete control
[25] = Preemergence, Rate 500 g/ha, scale 0 (no effect) to 10 (complete control)
[26] = Rate 125 g/ha, Postemergence, scale 0 to 10, 0 no effect, 10 complete control
[27] = Rate 500 g/ha, Postemergence, 0 to 10 scale (0 no effect, 10 complete control)

Cc1ccccc1-n1c(=O)on(C(=O)N(C2=CCOCC2)C(C)C)c1=O [Compound 10]
Ducksalad plant response rating [1, 17]: 0
Ducksalad plant response rating [1, 18]: 0
Ducksalad plant response rating [1, 19]: 0
Ducksalad plant response rating [1, 20]: 0
Rice plant response rating [2, 17]: 0
Rice plant response rating [2, 18]: 0
Rice plant response rating [2, 19]: 0
Rice plant response rating [2, 20]: 0
Soybean plant response rating [3, 17]: 3
Soybean plant response rating [3, 21]: 3
Plant response rating, Soybean [3, 22]: 0
Plant response rating, Soybean [3, 23]: 0
Plant response rating, Soybean [3, 24]: 0
Soybean plant response rating [3, 25]: 0
Soybean plant response rating [3, 26]: 3
Bedstraw plant response rating [4, 17]: 0
Bedstraw plant response rating [4, 21]: 0
Plant response rating, Bedstraw [4, 22]: 0
Plant response rating, Bedstraw [4, 23]: 0
Plant response rating, Bedstraw [4, 24]: 0
Bedstraw plant response rating [4, 25]: 0
Bedstraw plant response rating [4, 26]: 0
Bedstraw plant response rating [4, 27]: 0
Giant foxtail plant response rating [5, 17]: 2
Giant foxtail plant response rating [5, 21]: 8
Plant response rating, Giant foxtail [5, 22]: 3
Plant response rating, Giant foxtail [5, 23]: 6
Plant response rating, Giant foxtail [5, 24]: 9
Giant foxtail plant response rating [5, 25]: 9
Giant foxtail plant response rating [5, 26]: 5
Giant foxtail plant response rating [5, 27]: 8
Redroot pigweed plant response rating [6, 17]: 0
Redroot pigweed plant response rating [6, 21]: 0
Plant response rating, Redroot pigweed [6, 22]: 0
Plant response rating, Redroot pigweed [6, 23]: 0
Plant response rating, Redroot pigweed [6, 24]: 0
Redroot pigweed plant response rating [6, 25]: 0
Redroot pigweed plant response rating [6, 26]: 0
Redroot pigweed plant response rating [6, 27]: 0
Velvetleaf plant response rating [7, 17]: 0
Velvetleaf plant response rating [7, 21]: 0
Plant response rating, Velvetleaf [7, 22]: 0
Plant response rating, Velvetleaf [7, 23]: 0
Plant response rating, Velvetleaf [7, 24]: 0
Velvetleaf plant response rating [7, 25]: 0
Velvetleaf plant response rating [7, 26]: 0
Morningglory plant response rating [8, 17]: 0
Morningglory plant response rating [8, 21]: 2
Plant response rating, Morningglory [8, 22]: 0
Plant response rating, Morningglory [8, 23]: 0
Plant response rating, Morningglory [8, 24]: 0
Morningglory plant response rating [8, 25]: 0
Morningglory plant response rating [8, 26]: 2
Morningglory plant response rating [8, 27]: 3
Rape plant response rating [9, 17]: 0
Rape plant response rating [9, 21]: 0
Plant response rating, Rape [9, 22]: 0
Plant response rating, Rape [9, 23]: 0
Plant response rating, Rape [9, 24]: 0
Rape plant response rating [9, 25]: 0
Rape plant response rating [9, 26]: 0
Rape plant response rating [9, 27]: 0
Nutsedge plant response rating [10, 17]: 0
Nutsedge plant response rating [10, 21]: 0
Plant response rating, Nutsedge [10, 22]: 0
Plant response rating, Nutsedge [10, 23]: 0
Plant response rating, Nutsedge [10, 24]: 0
Nutsedge plant response rating [10, 25]: 0
Nutsedge plant response rating [10, 26]: 0
Nutsedge plant response rating [10, 27]: 0
B. signalgrass plant response rating [11, 17]: 0
B. signalgrass plant response rating [11, 21]: 4
Plant response rating, B. signalgrass [11, 22]: 0
Plant response rating, B. signalgrass [11, 23]: 5
Plant response rating, B. signalgrass [11, 24]: 8
B. signalgrass plant response rating [11, 25]: 8
B. signalgrass plant response rating [11, 26]: 0
B. signalgrass plant response rating [11, 27]: 4
S. Flatsedge plant response rating [12, 17]: 0
S. Flatsedge plant response rating [12, 18]: 0
S. Flatsedge plant response rating [12, 20]: 0
Corn plant response rating [13, 17]: 0
Corn plant response rating [13, 21]: 0
Plant response rating, Corn [13, 22]: 0
Plant response rating, Corn [13, 23]: 0
Plant response rating, Corn [13, 24]: 0
Corn plant response rating [13, 25]: 4
Corn plant response rating [13, 26]: 0
Corn plant response rating [13, 27]: 2
Barnyardgrass plant response rating [14, 17]: 0
Barnyardgrass plant response rating [14, 18]: 0
Barnyardgrass plant response rating [14, 19]: 0
Barnyardgrass plant response rating [14, 20]: 0
Blackgrass plant response rating [15, 17]: 0
Blackgrass plant response rating [15, 21]: 4
Plant response rating, Blackgrass [15, 22]: 1
Plant response rating, Blackgrass [15, 23]: 4
Plant response rating, Blackgrass [15, 24]: 8
Blackgrass plant response rating [15, 25]: 9
Blackgrass plant response rating [15, 26]: 0
Blackgrass plant response rating [15, 27]: 7
Sugarbeets plant response rating [16, 17]: 0
Sugarbeets plant response rating [16, 21]: 0
Plant response rating, Sugarbeets [16, 22]: 0
Plant response rating, Sugarbeets [16, 23]: 0
Plant response rating, Sugarbeets [16, 24]: 0
Sugarbeets plant response rating [16, 25]: 0
Sugarbeets plant response rating [16, 26]: 0
